Data set [1] can be described thus: Disposition after single oral dose, mouse. Conditions: male mouse, 5 mg/kg single oral, 14C-labeled, fasting. Details: concentration in blood: unit not given here. The class given is in vivo. As for the experimental part: After a single dose of compound 31 labeled with ^14C was orally administered at a predetermined dose to each of a male mouse, a male rat, and a male cynomolgus monkey under fasting conditions, the concentration in blood was measured after a lapse of a given time, and parameters such as maximum plasma concentration Cmax, time Tmax to reach the maximum plasma concentration, half-life t1/2, area under curve AUC0-∞, mean retention time MRT0-∞, and bioavailability BA were calculated. The concentration in blood in humans (normal subjects) was measured and each of the parameters was calculated, in the similar manner as above except that ^14C-unlabeled compound 31 was used.
In the tables, “N.D.” means not detected.

The nature of data set [2]: Disposition after single oral dose, MS patients. The class given is in vivo, human. Conditions: 0.3 mg/body single oral. As to the method: In the similar manner as in Example 5, a single dose of compound 31 labeled with ^14C was orally administered to each of 2 MS patients (subjects) after obtainment of informed consent, and the concentration of the compound in blood was measured and each parameter was calculated by collecting blood after a lapse of a given time.

Data set [3] deals with GM-CSF-producing CD4-positive memory T-cells. Put plainly: GM-CSF-producing CD4-positive memory T-cells in PBMCs of MS patients after single oral dose (FACS). The class given is in vivo, human. Conditions: 0.3 mg single oral. As to the method:
A single dose of compound 31, which is a synthetic glycolipid of the present invention, described in the first aspect was orally administered to each of 2 MS patients (subjects) shown in Table 2 above after obtainment of informed consent. The dose was set to 0.3 mg per person.
Subsequently, T-cell subfractions were prepared from the peripheral blood of each subject by using the density gradient centrifugation method. First, a total of 20 mL of blood was collected from the vein of each subject 24 hours (1st day), 48 hours (2nd day), 72 hours (3rd day), 168 hours (7th day), and 192 hours (8th day) after the administration of compound 31 by using two 10-mL heparin sodium-containing vacuum blood collection tubes. For a control, 20 mL of blood was similarly collected from the vein of each subject one day before the administration of compound 31.
Hereinafter, peripheral blood mononuclear cells (PBMCs) were collected by the same operation as in Example 1.
The collected PBMCs were stained with antibodies by the following method. First, 10 μL of a solution consisting of 8 μL of PBS containing 0.5% BSA/2 mM EDTA-2Na, 0.5 μL of APC-Cy7-anti-CD3 antibody (BioLegend, Inc.), 0.5 μL of ECD-anti-CD8 antibody (Beckman Coulter, Inc.), and 1 μL of PB-anti-CD45RA antibody (BioLegend, Inc.) was added to 2×10^6 cells of PBMCs, thoroughly mixed by vortexing, and then left on ice for 10 minutes. CD3 is a detection marker of T-cells, and CD3^+ cells indicate being T-cells. Also, CD45RA is a detection marker of naive T-cells, and CD45RA^+ cells indicate being naive T-cells. Also, CD45RA^− cells indicate being memory T-cells. Furthermore, CD8^− cells indicate being CD4^+ cells. 1 mL of PBS containing 0.5% BSA/2 mM EDTA-2Na was added, and after centrifugation at 1500 rpm for 5 minutes, a supernatant was removed by suction. Next, 100 μL of BD FIX buffer (Becton, Dickinson and Company) was added dropwise while vortexed, and then left on ice for 20 minutes. 1 mL of MACS buffer was added again, and after centrifugation at 1500 rpm for 5 minutes, a supernatant was removed by suction. Subsequently, 1 mL of 0.1% saponin was added, and the resultant was left at room temperature under light shielding for 2 minutes.
Subsequently, the resultant was dispensed as 250 μL (I group) and 750 μL (II group), and after centrifugation at 2200 rpm for 5 minutes, a supernatant was removed by suction.
For group I, 11 μL of a solution consisting of 7 μL of 0.1% saponin, 1 μL of PerCP-Cy5.5-anti-mouse IgG1 antibody (BioLegend, Inc.), 1 μL of Alexa 488-anti-mouse IgG1 antibody (BioLegend, Inc.), 1 μL of APC-anti-mouse IgG1 antibody (BioLegend, Inc.), and 1 μL of PE-anti-rat IgG1 antibody (Becton, Dickinson and Company) was added, thoroughly mixed by vortexing, and then left on ice for 10 minutes. […]

As a reminder, the AUC(0-inf) is the area under the concentration-time curve extrapolated to infinity. Usually AUC(0-t) stands for exposure summed from dosing to a finite time, without extrapolation to infinity. One may read the half-life as the time needed for the level to fall by half in the phase considered. For orientation: Cmax means the maximum level reached in the sampled fluid or tissue. For orientation: Tmax means the time from dosing to the highest level. In data set [1] (blood), `CCCCCCCCCCCCCCCCCCCCCCCC(=O)NC(COC1OC(CO)C(O)C(O)C1O)[C@H](O)C(O)CCCCC` (stereo in doubt) [compound 31, (2S,3S,4R)-1-O-(α-D-galactosyl)-2-(N-tetracosanoylamino)-1,3,4-nonanetriol] registered an AUC(0-inf) of 2920 ng·h/mL. For the same molecule, the AUC(0-t) in data set [1] (blood) is 2900 ng·h/mL; in data set [2] (human, blood) it was 1.41 ng·h/mL. For the same molecule, the half-life in data set [1] (blood) was 11 h. Moreover, the MRT inf in data set [1] (blood, read-out: MRT0-∞) was found to be 15.4 h. Further, the BA in data set [1] is reported as 1.01%. The same molecule came in with a Rate of absorption in data set [1] of 1.36%. Further, the concentration in blood is on record as 46.5 in data set [1] (4 h); 209 in data set [1] (8 h); 142 in data set [1] (12 h); 33 in data set [1] (24 h); 5.21 in data set [1] (48 h); 1.62 in data set [1] (72 h). Besides, the Cmax in data set [1] (plasma) was 209 ng/mL; in data set [2] (human, blood) it was 0.122 ng/mL. Besides, the Tmax in data set [1] (plasma) stood at 8 h; in data set [2] (human, blood), 18 h. Also, in data set [2], the “concentration in blood in MS patients as compared with normal persons” value is “low concentration in blood”. Further, the “proportion of GM-CSF-producing CD4-positive memory T-cells in PBMCs” value in data set [3] (after administration vs day-1) is “decreased”. The “Abundance ratio of mCD4T (%)” value in data set [3] (day 1, GM-CSF-producing CD4-positive memory T-cells in PBMCs, day −1 value 9.64) is 6.035%; in data set [3] (day 3, day −1 value 9.64), 6.76%; in data set [3] (day 7, day −1 value 9.64), 14.325%.

Source of the values: patent US12447167B2, “GM-CSF-producing t-cell control agent and Th1/Th2 immune balance regulator” (National Center of Neurology and Psychiatry, priority 2014, dated 2025).
